From ChEMBL document CHEMBL3877252, “Fluorescein hydrazones: A series of novel non-intercalative topoisomerase IIα catalytic inhibitors induce G1 arrest and apoptosis in breast and colon cancer cells” (Eur J Med Chem, 2017)
Calls of active or inactive are those of the source. The rule behind the calls is not given here.

Tests used:
[1] = Antiproliferative activity against human T47D cells measured after 72 hrs by CCK8 assay; type: functional, cell-based
[2] = Cell cycle arrest in human T47D cells assessed as accumulation at G1 phase at 10 uM after 20 hrs by DAPI staining-based cell analyzer (reference value: 47 to 50%); type: functional
[3] = Cell cycle arrest in human T47D cells assessed as accumulation at G1 phase at 3 uM after 24 hrs by DAPI staining-based cell analyzer (reference value: 51%); type: functional
[4] = Cell cycle arrest in human T47D cells assessed as accumulation at G1 phase at 1 uM after 24 hrs by DAPI staining-based cell analyzer (reference value: 51%); type: functional
[5] = Cell cycle arrest in human T47D cells assessed as accumulation at S phase at 1 uM after 24 hrs by DAPI staining-based cell analyzer (reference value: 26%); type: functional
[6] = Cell cycle arrest in human T47D cells assessed as increase in p27kip1 level measured after 24 hrs; type: functional, cell-based
[7] = Cell cycle arrest in human T47D cells assessed as accumulation at G2/M phase at 10 uM after 24 hrs by DAPI staining-based cell analyzer (reference value: 15%); type: functional
[8] = Cell cycle arrest in human T47D cells assessed as accumulation at G2/M phase at 10 uM after 15 hrs by DAPI staining-based cell analyzer (reference value: 18 to 20%); type: functional
[9] = Cell cycle arrest in human T47D cells assessed as accumulation at S phase at 10 uM after 24 hrs by DAPI staining-based cell analyzer (reference value: 26%); type: functional
[10] = Cell cycle arrest in human T47D cells assessed as accumulation at G1 phase at 10 uM after 24 hrs by DAPI staining-based cell analyzer (reference value: 51%); type: functional
[11] = Cell cycle arrest in human T47D cells assessed as accumulation at S phase at 10 uM after 10 hrs by DAPI staining-based cell analyzer (reference value: 22%); type: functional
T47D [12] = assay: Induction of apoptosis in human T47D cells assessed as increase in bax level measured after 24 hrs by Western blot analysis; type: functional, cell-based
[13] = target: T1, DNA topoisomerase 1 (Homo sapiens) (UniProt P11387); assay: Inhibition of human topoisomerase-1 assessed as inhibition of relaxation of supercoiled pBR322 plasmid DNA at 100 uM measured after 1 hr by ethidium bromide staining based agarose gel electrophoresis relative to control
T1 sequence (whole entry): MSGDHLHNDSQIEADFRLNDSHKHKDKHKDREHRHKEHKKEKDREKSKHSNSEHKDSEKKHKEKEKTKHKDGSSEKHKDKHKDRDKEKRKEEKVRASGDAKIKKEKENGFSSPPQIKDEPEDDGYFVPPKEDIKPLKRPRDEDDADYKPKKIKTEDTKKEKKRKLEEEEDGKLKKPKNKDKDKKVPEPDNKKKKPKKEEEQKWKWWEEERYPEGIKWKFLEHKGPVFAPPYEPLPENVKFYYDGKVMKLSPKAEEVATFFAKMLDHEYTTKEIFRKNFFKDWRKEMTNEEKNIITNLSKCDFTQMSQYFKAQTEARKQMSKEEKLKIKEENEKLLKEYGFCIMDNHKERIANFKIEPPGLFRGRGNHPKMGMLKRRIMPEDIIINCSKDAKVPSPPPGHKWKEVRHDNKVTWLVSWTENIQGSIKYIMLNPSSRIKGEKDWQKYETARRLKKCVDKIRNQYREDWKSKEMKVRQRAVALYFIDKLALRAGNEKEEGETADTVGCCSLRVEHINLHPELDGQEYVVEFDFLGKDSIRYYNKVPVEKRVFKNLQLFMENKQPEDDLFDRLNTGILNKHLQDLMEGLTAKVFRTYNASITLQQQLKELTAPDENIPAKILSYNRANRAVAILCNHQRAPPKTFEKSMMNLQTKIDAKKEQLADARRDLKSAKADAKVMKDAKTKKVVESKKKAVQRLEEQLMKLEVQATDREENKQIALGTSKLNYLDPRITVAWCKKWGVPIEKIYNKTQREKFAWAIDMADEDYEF

T47D [14] = assay: Induction of apoptosis in human T47D cells assessed as decrease in bcl-2 level measured after 24 hrs by Western blot analysis; type: functional, cell-based
[15] = Cell cycle arrest in human T47D cells assessed as accumulation at S phase at 10 uM after 15 hrs by DAPI staining-based cell analyzer (reference value: 22%); type: functional
[16] = target: DNA topoisomerase 2-alpha (Homo sapiens) (UniProt P11388); assay: Inhibition of human topoisomerase-2 alpha assessed as inhibition of relaxation of supercoiled pBR322 plasmid DNA at 100 uM measured after 1 hr by ethidium bromide staining based agarose gel electrophoresis relative to control
Sequence of DNA topoisomerase 2-alpha (Homo sapiens) (P11388 whole entry): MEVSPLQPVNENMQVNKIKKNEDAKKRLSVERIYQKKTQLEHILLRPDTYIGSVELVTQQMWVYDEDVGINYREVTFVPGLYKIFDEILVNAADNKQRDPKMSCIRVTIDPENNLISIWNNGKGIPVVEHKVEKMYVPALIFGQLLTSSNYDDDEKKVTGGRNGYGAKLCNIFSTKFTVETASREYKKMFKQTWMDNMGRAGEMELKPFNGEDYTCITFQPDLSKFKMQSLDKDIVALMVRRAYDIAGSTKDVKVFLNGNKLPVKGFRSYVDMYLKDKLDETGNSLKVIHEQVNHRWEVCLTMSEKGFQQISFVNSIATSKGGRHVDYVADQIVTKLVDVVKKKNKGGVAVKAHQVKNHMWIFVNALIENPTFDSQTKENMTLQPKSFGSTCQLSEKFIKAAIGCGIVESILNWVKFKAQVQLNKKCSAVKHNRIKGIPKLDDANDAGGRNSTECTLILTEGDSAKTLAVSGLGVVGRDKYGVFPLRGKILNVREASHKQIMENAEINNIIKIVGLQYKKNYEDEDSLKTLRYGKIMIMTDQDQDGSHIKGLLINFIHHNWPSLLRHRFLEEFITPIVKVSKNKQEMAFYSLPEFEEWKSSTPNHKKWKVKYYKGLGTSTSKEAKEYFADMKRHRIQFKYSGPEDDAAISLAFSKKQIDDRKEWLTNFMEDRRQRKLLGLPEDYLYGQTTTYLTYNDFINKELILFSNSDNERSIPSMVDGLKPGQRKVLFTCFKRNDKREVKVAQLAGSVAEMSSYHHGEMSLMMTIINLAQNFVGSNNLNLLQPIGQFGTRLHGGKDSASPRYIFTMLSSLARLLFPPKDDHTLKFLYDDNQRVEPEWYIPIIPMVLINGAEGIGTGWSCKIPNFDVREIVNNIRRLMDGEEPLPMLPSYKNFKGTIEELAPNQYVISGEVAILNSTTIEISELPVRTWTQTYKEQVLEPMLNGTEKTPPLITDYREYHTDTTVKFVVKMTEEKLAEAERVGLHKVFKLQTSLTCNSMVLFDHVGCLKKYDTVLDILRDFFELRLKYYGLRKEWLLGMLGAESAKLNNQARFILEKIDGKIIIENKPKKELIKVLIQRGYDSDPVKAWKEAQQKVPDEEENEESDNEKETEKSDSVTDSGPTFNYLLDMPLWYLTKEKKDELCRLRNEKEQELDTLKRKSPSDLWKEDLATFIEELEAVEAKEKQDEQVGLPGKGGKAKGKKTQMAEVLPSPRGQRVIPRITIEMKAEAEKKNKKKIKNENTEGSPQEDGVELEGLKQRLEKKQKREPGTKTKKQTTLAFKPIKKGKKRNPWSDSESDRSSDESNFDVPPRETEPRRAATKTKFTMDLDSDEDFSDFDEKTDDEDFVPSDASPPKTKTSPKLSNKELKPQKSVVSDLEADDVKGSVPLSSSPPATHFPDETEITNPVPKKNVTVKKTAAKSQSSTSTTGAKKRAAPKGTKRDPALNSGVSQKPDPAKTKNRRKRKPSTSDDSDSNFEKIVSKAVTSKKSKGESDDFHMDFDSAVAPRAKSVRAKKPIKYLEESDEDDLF

T47D [17] = assay: Induction of apoptosis in human T47D cells assessed as increase in cleaved PARP level measured after 24 hrs by Western blot analysis; type: functional, cell-based
[18] = Cell cycle arrest in human T47D cells assessed as accumulation at G1 phase at 10 uM after 5 hrs by DAPI staining-based cell analyzer (reference value: 47 to 50%); type: functional
[19] = Cell cycle arrest in human T47D cells assessed as accumulation at G1 phase at 10 uM after 15 hrs by DAPI staining-based cell analyzer (reference value: 47 to 50%); type: functional
[20] = Cell cycle arrest in human T47D cells assessed as accumulation at S phase at 10 uM after 5 hrs by DAPI staining-based cell analyzer (reference value: 22%); type: functional
[21] = Cell cycle arrest in human T47D cells assessed as decrease in cyclin D1 level measured after 24 hrs; type: functional, cell-based
[22] = Cell cycle arrest in human T47D cells assessed as accumulation at G2/M phase at 3 uM after 24 hrs by DAPI staining-based cell analyzer (reference value: 15%); type: functional
[23] = target: DNA topoisomerase 2-alpha (Homo sapiens) (UniProt P11388); assay: Inhibition of human topoisomerase-2 alpha assessed as inhibition of relaxation of supercoiled pBR322 plasmid DNA at 20 uM measured after 1 hr by ethidium bromide staining based agarose gel electrophoresis relative to control
[24] = target: DNA topoisomerase 2-alpha (Homo sapiens) (UniProt P11388); assay: Poison activity at topoisomerase-2 alpha in human T47D cells assessed as DNA damage by measuring DNA tail length at 5 uM measured after 24 hrs by alkaline comet assay; type: cell-based
[25] = target: DNA topoisomerase 2-alpha (Homo sapiens) (UniProt P11388); assay: Inhibition of topoisomerase-2 alpha catalytic activity in human T47D cells assessed as appearance of free protein band at 50 uM measured after 2 hrs by Western blot analysis; type: cell-based
[26] = Cell cycle arrest in human T47D cells assessed as accumulation at G2/M phase at 1 uM after 24 hrs by DAPI staining-based cell analyzer (reference value: 15%); type: functional
[27] = Cell cycle arrest in human T47D cells assessed as increase in p27kip1 level at 10 uM; type: functional, cell-based; conditions: TDE = time-dependent effect
[28] = Cell cycle arrest in human T47D cells assessed as accumulation at G2/M phase at 10 uM after 5 hrs by DAPI staining-based cell analyzer (reference value: 18 to 20%); type: functional
[29] = Cell cycle arrest in human T47D cells assessed as accumulation at G2/M phase at 10 uM after 20 hrs by DAPI staining-based cell analyzer (reference value: 18 to 20%); type: functional
[30] = Cell cycle arrest in human T47D cells assessed as accumulation at G2/M phase at 10 uM after 10 hrs by DAPI staining-based cell analyzer (reference value: 18 to 20%); type: functional
[31] = Cell cycle arrest in human T47D cells assessed as accumulation at G1 phase at 10 uM by DAPI staining based cell analyzer; type: functional; conditions: TDE = time-dependent effect
[32] = Cell cycle arrest in human T47D cells assessed as accumulation at S phase at 3 uM after 24 hrs by DAPI staining-based cell analyzer (reference value: 26%); type: functional
[33] = Antiproliferative activity against human DU145 cells measured after 72 hrs by CCK8 assay; type: functional, cell-based; conditions: DU-145, 72 h
[34] = Antiproliferative activity against human HCT15 cells measured after 72 hrs by CCK8 assay; type: functional, cell-based; conditions: HCT-15, 72 h
[35] = Antiproliferative activity against human MCF7 cells measured after 72 hrs by CCK8 assay; type: functional, cell-based; conditions: MCF7, 72 h
[36] = Cell cycle arrest in human T47D cells assessed as accumulation at G1 phase at 10 uM after 10 hrs by DAPI staining-based cell analyzer (reference value: 47 to 50%); type: functional
[37] = Cell cycle arrest in human T47D cells assessed as decrease in cyclin D1 level at 10 uM; type: functional, cell-based; conditions: TDE = time-dependent effect
[38] = Cell cycle arrest in human T47D cells assessed as accumulation at S phase at 10 uM after 20 hrs by DAPI staining-based cell analyzer (reference value: 22%); type: functional
[39] = target: DNA topoisomerase 2-alpha (Homo sapiens) (UniProt P11388); assay: Poison activity at topoisomerase-2 alpha in human T47D cells assessed as DNA damage by measuring DNA tail length at 10 uM measured after 24 hrs by alkaline comet assay; type: cell-based
[40] = target: T1, DNA topoisomerase 1 (Homo sapiens); assay: Inhibition of human topoisomerase-1 assessed as inhibition of relaxation of supercoiled pBR322 plasmid DNA at 20 uM measured after 1 hr by ethidium bromide staining based agarose gel electrophoresis relative to control

SMILES	IC50 [1] [nM]	Activity [2] [%]	Activity [3] [%]	Activity [4] [%]	Activity [5] [%]	Activity [6]	Activity [7] [%]	Activity [8] [%]	Activity [9] [%]	Activity [10] [%]	Activity [11] [%]	Activity (T47D [12])	inhibition [13] [%]	Activity (T47D [14])	inhibition [16] [%]	inhibition [23] [%]	IC50 [33] [nM]	IC50 [34] [nM]	IC50 [35] [nM]	inhibition [40] [%]	further results
CCOc1ccc2c(c1)Oc1cc(O)ccc1C21c2ccccc2C(=O)N1/N=C/c1cccc(O)c1 (configuration not stated)	350	65	57	56	24	Dose-dependent effect	9	12	20	64	21	Dose-dependent effect	0	Dose-dependent effect	89.3	2.6	40	830	2230	–	Activity [15]: 21%; Activity (T47D [17]): Dose-dependent effect; Activity [18]: 59%; Activity [19]: 61%; Activity [20]: 21%; Activity [21]: Dose-dependent effect; Activity [22]: 12%; Activity [24]: 9.55 pixel; inhibition [25]: Active; Activity [26]: 13%; Activity [27]: Tde; Activity [28]: 12%; Activity [29]: 12%; Activity [30]: 12%; Activity [31]: Tde; Activity [32]: 22%; Activity [36]: 60%; Activity [37]: Tde; Activity [38]: 15%; Activity [39]: 11.5 pixel
CCOc1ccc2c(c1)Oc1cc(O)ccc1C21c2ccccc2C(=O)N1/N=C/c1ccc(O)cc1 (configuration not stated)	780	–	–	–	–	–	–	–	–	–	–	–	36.5	–	73.8	3.3	1060	30	4660	0	–
CCOc1ccc2c(c1)Oc1cc(OC(=O)c3ccccc3[N+](=O)[O-])ccc1C21c2ccccc2C(=O)N1/N=C/c1ccc(Cl)cc1Cl (configuration not stated)	> 50000	–	–	–	–	–	–	–	–	–	–	–	98	–	83.8	2.9	6740	6250	> 50000	77	–
CCOc1ccc2c(c1)Oc1cc(O)ccc1C21c2ccccc2C(=O)N1/N=C/c1ccccc1O (configuration not stated)	430	62	59	54	28	Dose-dependent effect	11	10	22	60	22	Dose-dependent effect	39.5	Dose-dependent effect	78.7	1.9	550	1840	4740	28.1	Activity [15]: 21%; Activity (T47D [17]): Dose-dependent effect; Activity [18]: 51%; Activity [19]: 57%; Activity [20]: 21%; Activity [21]: Dose-dependent effect; Activity [22]: 11%; Activity [24]: 7.76 pixel; inhibition [25]: Active; Activity [26]: 14%; Activity [27]: Tde; Activity [28]: 14%; Activity [29]: 10%; Activity [30]: 13%; Activity [31]: Tde; Activity [32]: 25%; Activity [36]: 55%; Activity [37]: Tde; Activity [38]: 20%; Activity [39]: 8.56 pixel
CCOc1ccc2c(c1)Oc1cc(O)ccc1C21c2ccccc2C(=O)N1/N=C/c1ccc(Cl)cc1 (configuration not stated)	5740	–	–	–	–	–	–	–	–	–	–	–	22.7	–	81.6	1.3	2300	2190	9770	–	–
